Measurements from patent publication US9493420B2, “Quinoline derivatives and uses thereof” (Portland State University, priority 2005, dated 2016).

Test system: P. chabaudi parasites
Test: 4-day suppressive test in infected mice
Format: in vivo
Settings: 64 mg/kg oral gavage once per day for four days; male CF-1 mice; by day 4
Description: Antimalarial compounds can also be tested for efficacy in vivo. One non-limiting exemplary method for performing such testing is the 4-day suppressive test (Peters, Ann. Trop. Med. Parasitol., 69(2):155-171, 1975). Briefly, such test involves collecting P. chabaudi (Mackinnon and Read, Philos. Trans. R. Soc. Lond. B Biol. Sci., 359:965-986, 2004; Mackinnon et al., Exp. Parasitol., 101 (2-3):121-128, 2002) from a donor animal harboring ˜20% parasitemia. Male CF-1 mice at 4-5 weeks of age (˜20 g) are infected with ˜10^7 infected red blood cells via 100 μL tail vein injection and randomly sorted into groups of 4 mice each on day 0. One hour after infection, the mice receive the test agent via oral gavage, or by the intraperitoneal route (at approximately 1-10 times the in vitro IC50 values). Drugs are administered once daily for at least 4 days beginning at day 0. […] Efficacy of a tested compound in this bioassay is measured by inhibition of parasite growth as defined previously. […]
A variation of the 4-day suppressive test described by Peters (Ann. Trop. Med. Parasitol., 69(2):155-171, 1975) was used to test the in vivo effectiveness of RCQ_02 as a treatment for Plasmodium sp. infection. Briefly, P. chabaudi parasites (Mackinnon and Read, Philos. Trans. R. Soc. Lond. B Biol. Sci., 359:965-986, 2004) were collected from a donor animal harboring approximately 20% parasitemia. […]

CN(CCCNc1ccnc2cc(Cl)ccc12)CCCN1c2ccccc2CCc2ccccc21 [RCQ_02, N′-(7-Chloro-quinolin-4-yl)-N-[3-(10,11-dihydro-dibenzo[b,f]azepin-5-yl)-propyl]-N-methyl-propane-1,3-diamine]
cleared of parasites: > 99%
